Data taken from publication PMC8445441, “Elucidating the mechanism by which synthetic helper peptides sensitize Pseudomonas aeruginosa to multiple antibiotics” (PLoS Pathogens, 2021).
Read-outs that look alike come from different tables or passages of the source. One block for each compound: values may come before it.

Experiments:
P. aeruginosa AUMC-Pa-3 = experiment: microbe, parasite or virus in culture; settings: for MIC: Pseudomonas aeruginosa, AUMCPA3, 18 h, read-out: MICa: MIC of the antibiotic; for FICI / MICac: MIC of the antibiotic in the combination: strain AUMC-Pa-3; for FICI: antibiotic + D-11 (MICb/MICbc 128/4); for MICac: MIC of the antibiotic in the combination: with D-11 at MICbc 4, unit not given
How it was run: (§1)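 MICs were determined by CLSI broth microdilution in MHB, in triplicate: two-fold drug dilutions were mixed 1:1 with bacterial suspension of ~1 × 10^6 CFU/mL and incubated 18 h at 37 °C. The MIC was the lowest concentration with no visible growth.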

P. aeruginosa AUMC-Pa-4 = experiment: microbe, parasite or virus in culture; settings: for FICI: antibiotic + D-11 (MICb/MICbc 128/4); for MICac: MIC of the antibiotic in the combination: with D-11 at MICbc 4
How it was run: as §1

P. aeruginosa AUMC-Pa-5 = experiment: microbe, parasite or virus in culture; settings: strain AUMC-Pa-5; for FICI: antibiotic + D-11 (MICb/MICbc 64/4); for MICa: MIC of the antibiotic: antibiotic alone; for MICa: MIC of the antibiotic / MICac: MIC of the antibiotic in the combination: unit not given; for MICac: MIC of the antibiotic in the combination: with D-11 at MICbc 4
How it was run: as §1

P. aeruginosa AUMC-Pa-6 = experiment: microbe, parasite or virus in culture; settings: strain AUMC-Pa-6; for MICa: MIC of the antibiotic: antibiotic alone; for MICa: MIC of the antibiotic / MICac: MIC of the antibiotic in the combination: unit not given; for MICac: MIC of the antibiotic in the combination: with D-11 at MICbc 4
How it was run: as §1

P. aeruginosa PAO1 = experiment: microbe, parasite or virus in culture; settings: PAO1; for MIC: Pseudomonas aeruginosa, PAO1, 18 h, read-out: MICa: the MIC of antibiotics, S3 Table, antibiotic alone; for FICI / MICac: the MIC for the antibiotic in the combination: S3 Table
How it was run: as §1

P. aeruginosa ATCC27853 = experiment: microbe, parasite or virus in culture; design: MICa: MIC of the antibiotic / MICac: MIC of the antibiotic in the combination: unit not given beside the values; settings: for MIC: Pseudomonas aeruginosa, ATCC27853, 18 h, read-out: MICa: MIC of the antibiotic
How it was run: as §1

P. aeruginosa NR-31040 = experiment: microbe, parasite or virus in culture; design: MICa: MIC of the antibiotic / MICac: MIC of the antibiotic in the combination: unit not given beside the values; settings: for FICI: antibiotic + D-11 (MICb/MICbc 128/4); for MICac: MIC of the antibiotic in the combination: with D-11 at MICbc 4
How it was run: as §1

P. aeruginosa NR-31041 = experiment: microbe, parasite or virus in culture; design: MICa: MIC of the antibiotic / MICac: MIC of the antibiotic in the combination: unit not given beside the values; settings: for MIC: Pseudomonas aeruginosa, NR31041, 18 h, read-out: MICa: MIC of the antibiotic; for FICI / MICac: MIC of the antibiotic in the combination: strain NR-31041; for FICI: antibiotic + D-11 (MICb/MICbc 64/4); for MICac: MIC of the antibiotic in the combination: with D-11 at MICbc 4, unit not given
How it was run: as §1

P. aeruginosa PA14 = experiment: microbe, parasite or virus in culture; design: MICa: MIC of the antibiotic / MICac: MIC of the antibiotic in the combination: unit not given beside the values; settings: for MIC: Pseudomonas aeruginosa, PA14, 18 h, read-out: MICa: MIC of the antibiotic; for FICI / MICac: MIC of the antibiotic in the combination: strain PA14; for FICI: antibiotic + D-11 (MICb/MICbc 128/4); for MICac: MIC of the antibiotic in the combination: with D-11 at MICbc 4, unit not given
How it was run: as §1

P. aeruginosa PAK = experiment: microbe, parasite or virus in culture; design: MICa: MIC of the antibiotic / MICac: MIC of the antibiotic in the combination: unit not given beside the values; settings: for MIC: Pseudomonas aeruginosa, 18 h, read-out: MICa: MIC of the antibiotic; for FICI / MICac: MIC of the antibiotic in the combination: strain PAK; for FICI: antibiotic + D-11 (MICb/MICbc 64/4); for MICac: MIC of the antibiotic in the combination: with D-11 at MICbc 4, unit not given
How it was run: as §1

P. aeruginosa HM-214 = settings: strain HM-214; antibiotic + D-11 (MICb/MICbc 128/4)
How it was run: as §1

P. aeruginosa AUMC-Pa-1 = settings: strain AUMC-Pa-1; antibiotic + D-11 (MICb/MICbc 128/4)
How it was run: as §1

P. aeruginosa AUMC-Pa-2 = settings: strain AUMC-Pa-2; antibiotic + D-11 (MICb/MICbc 64/4)
How it was run: as §1

[1] = tested on: clinical P. aeruginosa isolates; experiment: microbe, parasite or virus in culture; settings: Pseudomonas aeruginosa, 18 h, antibiotic alone
How it was run: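 Broth microdilution per CLSI in MHB, two-fold drug dilutions mixed with an equal volume of bacteria at about 1 × 10^6 CFU/mL. After 18 h at 37 °C, MIC taken as the lowest concentration with no visible growth; run in triplicate.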

[2] = strain AUMC-Pa-4, unit not given
[3] = strain NR-31040, unit not given
[4] = read-out: Antibiotic sensibility (MIC) of clinical P. aeruginosa isolate AUMC-Pa-1, strain AUMC-Pa-1
[5] = read-out: Antibiotic sensibility (MIC) of clinical P. aeruginosa isolate AUMC-Pa-2, strain AUMC-Pa-2
[6] = read-out: Antibiotic sensibility (MIC) of clinical P. aeruginosa isolate AUMC-Pa-3, strain AUMC-Pa-3
[7] = read-out: Antibiotic sensibility (MIC) of clinical P. aeruginosa isolate AUMC-Pa-4, strain AUMC-Pa-4
[8] = read-out: Antibiotic sensibility (MIC) of clinical P. aeruginosa isolate AUMC-Pa-5, strain AUMC-Pa-5
[9] = read-out: Antibiotic sensibility (MIC) of clinical P. aeruginosa isolate AUMC-Pa-6, strain AUMC-Pa-6
[10] = read-out: Antibiotic sensibility (MIC) of clinical P. aeruginosa isolate HM-214, strain HM-214
[11] = read-out: Antibiotic sensibility (MIC) of clinical P. aeruginosa isolate NR-31040, strain NR-31040
[12] = read-out: Antibiotic sensibility (MIC) of clinical P. aeruginosa isolate NR-31041, strain NR-31041

- MIC (P. aeruginosa AUMC-Pa-3): 16 µM
- MICac: MIC of the antibiotic in the combination (P. aeruginosa AUMC-Pa-3): 0.016
- MIC (P. aeruginosa AUMC-Pa-4; Pseudomonas aeruginosa, AUMCPA4, 18 h, read-out: MICa: MIC of the antibiotic): 16 µM
- MICac: MIC of the antibiotic in the combination (P. aeruginosa AUMC-Pa-4; [2]): 0.25
- MICa: MIC of the antibiotic (P. aeruginosa AUMC-Pa-5): 32
- MICac: MIC of the antibiotic in the combination (P. aeruginosa AUMC-Pa-5): 16
- MICa: MIC of the antibiotic (P. aeruginosa AUMC-Pa-6): 32
- MICac: MIC of the antibiotic in the combination (P. aeruginosa AUMC-Pa-6): 2
- MIC (P. aeruginosa PAO1): 32 µM
- MICac: the MIC for the antibiotic in the combination (P. aeruginosa PAO1; with 2 μM D-11): 0.0625 µM
- MICac: the MIC for the antibiotic in the combination (P. aeruginosa PAO1; with 4 μM D-11): 0.01562 µM
- MIC (P. aeruginosa ATCC27853): 16 µM
- MIC (P. aeruginosa NR-31040; Pseudomonas aeruginosa, NR31040, 18 h, read-out: MICa: MIC of the antibiotic): 16 µM
- MICac: MIC of the antibiotic in the combination (P. aeruginosa NR-31040; [3]): 0.25
- MIC (P. aeruginosa NR-31041): 32 µM
- MICac: MIC of the antibiotic in the combination (P. aeruginosa NR-31041): 0.063
- MIC (P. aeruginosa PA14): > 128 µM
- MICac: MIC of the antibiotic in the combination (P. aeruginosa PA14): 2
- MIC (P. aeruginosa PAK): 16 µM
- MICac: MIC of the antibiotic in the combination (P. aeruginosa PAK): 0.063
- MIC [1, 4]: 32 µM
- MIC [1, 5]: 16 µM
- MIC [1, 6]: 16 µM
- MIC [1, 7]: 16 µM
- MIC [1, 8]: 32 µM
- MIC [1, 9]: 32 µM
- MIC [1, 10]: 16 µM
- MIC [1, 11]: 16 µM
- MIC [1, 12]: 32 µM
Structure (SMILES): CO[C@H]1/C=C/O[C@@]2(C)Oc3c(C)c(O)c4c(O)c(c(/C=N/N5CCN(C)CC5)c(O)c4c3C2=O)NC(=O)/C(C)=C\C=C\[C@H](C)[C@H](O)[C@@H](C)[C@@H](O)[C@@H](C)[C@H](OC(C)=O)[C@@H]1C [Rifampicin]
- FICI (P. aeruginosa AUMC-Pa-3): 0.032
- FICI (P. aeruginosa AUMC-Pa-4; strain AUMC-Pa-4): 0.047
- FICI (P. aeruginosa AUMC-Pa-5): 0.563
- FICI (P. aeruginosa PAO1; antibiotic + 2 μM D-11): 0.064
- FICI (P. aeruginosa NR-31040; strain NR-31040): 0.063
- FICI (P. aeruginosa NR-31041): 0.064
- FICI (P. aeruginosa PA14): 0.039
- FICI (P. aeruginosa PAK): 0.066
- FICI (P. aeruginosa HM-214): 0.047
- FICI (P. aeruginosa AUMC-Pa-1): 0.032
- FICI (P. aeruginosa AUMC-Pa-2): 0.064

- MIC (P. aeruginosa AUMC-Pa-3): 8 µM
- MICac: MIC of the antibiotic in the combination (P. aeruginosa AUMC-Pa-3): 0.25
- MICa: MIC of the antibiotic (P. aeruginosa AUMC-Pa-4; strain AUMC-Pa-4, antibiotic alone, unit not given): 8
- MICac: MIC of the antibiotic in the combination (P. aeruginosa AUMC-Pa-4; [2]): 2
- MICa: MIC of the antibiotic (P. aeruginosa AUMC-Pa-5): 32
- MICac: MIC of the antibiotic in the combination (P. aeruginosa AUMC-Pa-5): 8
- MICa: MIC of the antibiotic (P. aeruginosa AUMC-Pa-6): 16
- MICac: MIC of the antibiotic in the combination (P. aeruginosa AUMC-Pa-6): 4
- MIC (P. aeruginosa PAO1): 16 µM
- MICac: the MIC for the antibiotic in the combination (P. aeruginosa PAO1; with 2 μM D-11): 0.0625 µM
- MICac: the MIC for the antibiotic in the combination (P. aeruginosa PAO1; with 4 μM D-11): 0.03125 µM
- MIC (P. aeruginosa ATCC27853): 16 µM
- MICac: MIC of the antibiotic in the combination (P. aeruginosa ATCC27853; strain ATCC27853, with D-11 at MICbc 4, unit not given): 0.5
- MICa: MIC of the antibiotic (P. aeruginosa NR-31040; strain NR-31040, antibiotic alone, unit not given): 16
- MICac: MIC of the antibiotic in the combination (P. aeruginosa NR-31040; [3]): 1
- MIC (P. aeruginosa NR-31041): 16 µM
- MICac: MIC of the antibiotic in the combination (P. aeruginosa NR-31041): 0.25
- MIC (P. aeruginosa PA14): > 128 µM
- MICac: MIC of the antibiotic in the combination (P. aeruginosa PA14): 16
- MIC (P. aeruginosa PAK): 16 µM
- MICac: MIC of the antibiotic in the combination (P. aeruginosa PAK): 0.5
- MIC [1, 4]: 32 µM
- MIC [1, 5]: 8 µM
- MIC [1, 6]: 8 µM
- MIC [1, 7]: 8 µM
- MIC [1, 8]: 32 µM
- MIC [1, 9]: 16 µM
- MIC [1, 10]: 8 µM
- MIC [1, 11]: 16 µM
- MIC [1, 12]: 16 µM
Structure (SMILES): CO[C@H]1/C=C/O[C@@]2(C)Oc3c(C)c(O)c4c(O)c(c5c(nc6cc(C)ccn65)c4c3C2=O)NC(=O)/C(C)=C\C=C\[C@H](C)[C@H](O)[C@@H](C)[C@@H](O)[C@@H](C)[C@H](OC(C)=O)[C@@H]1C [Rifaximin]
- FICI (P. aeruginosa AUMC-Pa-3): 0.063
- FICI (P. aeruginosa AUMC-Pa-4; strain AUMC-Pa-4): 0.281
- FICI (P. aeruginosa AUMC-Pa-5): 0.313
- FICI (P. aeruginosa AUMC-Pa-6; antibiotic + D-11 (MICb/MICbc 64/4)): 0.313
- FICI (P. aeruginosa PAO1; antibiotic + 2 μM D-11): 0.066
- FICI (P. aeruginosa PAO1; antibiotic + 4 μM D-11): 0.127
- FICI (P. aeruginosa ATCC27853; strain ATCC27853, antibiotic + D-11 (MICb/MICbc 32/4)): 0.156
- FICI (P. aeruginosa NR-31040; strain NR-31040): 0.094
- FICI (P. aeruginosa NR-31041): 0.078
- FICI (P. aeruginosa PA14): 0.094
- FICI (P. aeruginosa PAK): 0.094
- FICI (P. aeruginosa HM-214): 0.063
- FICI (P. aeruginosa AUMC-Pa-1): 0.047
- FICI (P. aeruginosa AUMC-Pa-2): 0.094
